Among the data in US12053473B2, “Benzylamino substituted quinazolines and derivatives as SOS1 inhibitors” (priority 2016, dated 2024) are IC50 values, retold here.

The term IC50 denotes the midpoint of a concentration-inhibition curve.

The target of the assay is SOS1 and KRAS G12D (protein-protein interaction) (Homo sapiens, UniProt Q07889). Briefly: KRAS::SOS1 AlphaScreen binding assay. The following applies: read-out: IC50 (SOS1). On the procedure: KRAS::SOS1 AlphaScreen Binding Assay
Low IC50 values are indicative of high potency of the SOS1 inhibitor compound in this assay setting:
10 nM (final assay concentration) KRAS G12D, 10 μM (final assay concentration) GDP and 5 nM (final assay concentration) GST-SOS1 are mixed in assay buffer prior to use and kept at room temperature.
AlphaLSA Glutathione Acceptor Beads and AlphaScreen Streptavidin Donor Beads are mixed in assay buffer at a concentration of 10 μg/mL (final assay concentration) each prior to use and kept at room temperature.
Compounds are diluted to a final start concentration of 100 μM and are tested in duplicate. […] For compound a start concentration of 100 μM, 150 nL of compound solution is transferred per well in 11 concentrations in duplicate with serial 1:5 dilutions.
The assay is run using a fully automated robotic system in a darkened room below 100 Lux. 10 μL of KRAS::SOS1 GDP mix is added into columns 1-24 to the 150 nL of compound solution (final dilution in the assay 1:100, final DMSO concentration 1%).
After a 30 minute incubation time 5 μL of bead mix is added into columns 1-23. Plates are kept at room temperature in a darkened incubator. After a further 60 minute incubation, the signal is measured using a PerkinElmer Envision HTS Multilabel Reader using the AlphaScreen specifications from PerkinElmer. Each plate contains the following controls: • diluted DMSO+KRAS::SOS1 GDP mix+bead mix • diluted DMSO+KRAS::SOS1 GDP mix Result Calculation:
IC50 values are calculated and analyzed using a 4 parametric logistic model.
For orientation: Bead proximity is the source of the signal in Alpha formats.

Setting [1] is: values marked with * in the table.
Where [2] appears, read: assay buffer without EDTA (values not marked with an asterisk).

The structures appear in SMILES notation. Like-named read-outs stand apart in the source and are kept apart here.

Regarding `Cc1cccc([C@@H](C)Nc2nc(C)nc3ccc([C@H]4CC[C@H](C(=O)N5CC(C#N)C5)CC4)cc23)c1` [I-265], the IC50 came out at 36 nM.
The same measure, in the same setting: the result for `Cc1cccc([C@@H](C)Nc2nc(C)nc3ccc([C@H]4CC[C@H](C(=O)N5CCC(O)C5)CC4)cc23)c1` (stereo partly drawn) [I-266] reads 25 nM; that for `COc1cc2nc(C)nc(N[C@H](C)c3cccc(C)c3)c2cc1[C@H]1CC[C@H](C(=O)N(C)C)CC1` [I-267], 9 nM.
`CC(=O)N1CCC(c2cc(C)c3nc(C)nc(N[C@H](C)c4cccc(C)c4)c3c2)CC1` [I-269]: the half-maximal inhibitory concentration (IC50) came out at 24 nM.
For `COCC(=O)N1CCC(c2cc(C)c3nc(C)nc(N[C@H](C)c4cccc(C)c4)c3c2)CC1` [I-270], the IC50 is 21 nM.
Still for that read-out and setting: under `CC(=O)N1CCC(c2cc3c(N[C@H](C)c4cccc(C)c4)nc(C)nc3cc2C)CC1` [I-271] stands 24 nM.
Same read-out and setting: under `COCC(=O)N1CCC(c2cc3c(N[C@H](C)c4cccc(C)c4)nc(C)nc3cc2C)CC1` [I-272] stands 34 nM; under `Cc1nc(N[C@H](C)c2cccc(C(F)(F)F)c2)c2cc(C3CCN(CC(=O)N(C)C)CC3)ccc2n1` [I-273], 11 nM.
As to `COCC(=O)N1CCC(c2ccc3nc(C)nc(N[C@H](C)c4cccc(C)c4)c3c2)CC1` [I-277], under setting [1], the concentration for half-maximal inhibition (IC50) came to 22 nM.
`COc1cc2nc(C)nc(N[C@H](C)c3cc(N)cc(C(F)(F)F)c3F)c2cc1C1CCN(C(C)=O)CC1` [I-278]: the IC50 was found to be 2 nM.
Same read-out and setting: under `CC(=O)N1CCC(c2ccc3nc(C)nc(N[C@H](C)c4cccc(C(F)(F)F)c4)c3c2)CC1` [I-280] stands 17 nM; under `COc1cc2nc(C)nc(N[C@H](C)c3cccc(C)c3)c2cc1C1CCN(C(C)=O)CC1` [I-281], 12 nM.
The same measure, in the same setting: the result for `COCC(=O)N1CCC(c2cc3c(N[C@H](C)c4cccc(C)c4)nc(C)nc3cc2OC)CC1` [I-282] reads 20 nM; that for `COc1cc2nc(C)nc(N[C@H](C)c3cccc(C(F)(F)CO)c3)c2cc1C1=CCC(C(=O)N(C)C)CC1` (stereo partly drawn) [I-285], 2 nM.
Still for that read-out and setting: the result for `COCC(=O)N1CC=C(c2cc3c(N[C@H](C)c4cccc(C(F)(F)CO)c4)nc(C)nc3cc2OC)CC1` [I-286] reads 2 nM; that for `COc1cc2nc(C)nc(N[C@H](C)c3cccc(C(F)(F)CO)c3)c2cc1C1=CCN(C(C)=O)CC1` [I-287], 2 nM.
On to `Cc1cccc([C@@H](C)Nc2nc(C)nc3cc(C)c(C4CCN(C(C)C)CC4)cc23)c1` [I-288], for which, under setting [2], the concentration for half-maximal inhibition (IC50) was 22 nM.
`Cc1cccc([C@@H](C)Nc2nc(C)nc3c(C)cc(C4CCN(C(C)C)CC4)cc23)c1` [I-289]: the IC50 under setting [2] is 18 nM.
Still for that read-out and setting: under `Cc1cccc([C@@H](C)Nc2nc(C)nc3c(C)cc(C4CCN(C5CCOC5)CC4)cc23)c1` (stereo partly drawn) [I-290] stands 28 nM.
Still for that read-out and setting: under `Cc1cccc([C@@H](C)Nc2nc(C)nc3cc(C)c(C4CCN(CC(=O)O)CC4)cc23)c1` [I-291] stands 10 nM.
For the compound `Cc1cccc([C@@H](C)Nc2nc(C)nc3c(C)cc(C4CCN(CC(=O)O)CC4)cc23)c1` [I-292], under setting [2], the IC50 was 28 nM.
Still for that read-out and setting: under `Cc1nc(N[C@H](C)c2cccc(C(F)(F)F)c2)c2cc(C3CCN(CC(=O)O)CC3)ccc2n1` [I-293] stands 11 nM.
For the compound `COc1cc2nc(C)nc(N[C@H](C)c3cccc(C(F)(F)F)c3C)c2cc1[C@H]1CC[C@H](C(=O)N(C)CCO)CC1` [I-294], the IC50 is 5 nM.
`COc1cc2nc(C)nc(N[C@H](C)c3cccc(C(F)(F)F)c3C)c2cc1[C@H]1CC[C@H](C(=O)N(C)C)CC1` [I-296]: the half-maximal inhibitory concentration (IC50) is 7 nM.
The same measure, in the same setting: the result for `Cc1nc(N[C@H](C)c2cc(N)cc(C(F)(F)F)c2)c2cc([C@H]3CC[C@H](C(=O)N(C)C)CC3)ccc2n1` [I-298] reads 3 nM; that for `Cc1nc(N[C@H](C)c2cc(N)cc(C(F)(F)F)c2)c2cc([C@H]3CC[C@@H](C(=O)N(C)C)CC3)ccc2n1` [I-299], 10 nM.
Regarding `COCC(=O)N1CCC(c2cc3c(N[C@H](C)c4cc(N)cc(C(F)(F)F)c4F)nc(C)nc3cc2OC)CC1` [I-307], the IC50 stood at 3 nM.
For the compound `COc1cc2nc(C)nc(N[C@H](C)c3cccc(C(F)(F)F)c3)c2cc1C1CCN(C(C)=O)CC1` [I-308], the IC50 was determined as 9 nM.
On the same count and under the same terms, the result for `Cc1nc(N[C@H](C)c2cc(N)cc(C(F)(F)F)c2F)c2cc(C3CCS(=O)(=O)CC3)ccc2n1` [I-310] reads 7 nM; that for `COc1cc2nc(C)nc(N[C@H](C)c3cc(N)cc(C(F)(F)F)c3F)c2cc1C1CCS(=O)(=O)CC1` [I-311], 6 nM.
On the same count and under the same terms, the result for `COc1cc2nc(C)nc(N[C@H](C)c3cccc(C)c3)c2cc1C1CCS(=O)(=O)CC1` [I-312] reads 18 nM.
Regarding `Cc1nc(N[C@H](C)c2cc(N)cc(C(F)(F)F)c2)c2cc(C3CCN(C(=O)CN(C)C)CC3)ccc2n1` [I-313], the IC50 stood at 3 nM.
Turning to `COCC(=O)N1CCC(c2ccc3nc(C)nc(N[C@H](C)c4cc(N)cc(C(F)(F)F)c4)c3c2)CC1` [I-314], the IC50 amounted to 2 nM.
For the compound `COCC(=O)N1CCC(c2cc3c(N[C@H](C)c4cc(N)cc(C(F)(F)F)c4)nc(C)nc3cc2C)CC1` [I-315], the IC50 was 3 nM.
The same measure, in the same setting: under `Cc1nc(N[C@H](C)c2cc(N)cc(C(F)(F)F)c2)c2cc(C3CCS(=O)(=O)CC3)cc(C)c2n1` [I-316] stands 6 nM; under `Cc1nc(N[C@H](C)c2cc(N)cc(C(F)(F)F)c2C)c2cc(C3CCS(=O)(=O)CC3)ccc2n1` [I-317], 4 nM; under `Cc1nc(N[C@H](C)c2cc(N)cc(C(F)(F)F)c2)c2cc(C3CCS(=O)(=O)CC3)c(F)cc2n1` [I-320], 4 nM.
In the case of `Cc1nc(N[C@H](C)c2cc(N)cc(C(F)(F)F)c2)c2cc(C3CCS(=O)(=O)CC3)c(C)cc2n1` [I-321], the IC50 came out at 3 nM.
The same measure, in the same setting: the result for `Cc1nc(N[C@H](C)c2cc(N)cc(C(F)(F)F)c2)c2cc(C3CCS(=O)(=O)CC3)ccc2n1` [I-322] reads 3 nM.
On to `Cc1cccc([C@@H](C)Nc2nc(C)nc3ccc(C4CCS(=N)(=O)CC4)cc23)c1` (stereo partly drawn) [I-330], for which, under setting [1], the IC50 turned out to be 20 nM.
For the compound `Cc1cccc([C@@H](C)Nc2nc(C)nc3ccc([C@H]4CC[S@@](=N)(=O)CC4)cc23)c1` [I-331], the IC50 under setting [1] came to 25 nM.
As for `Cc1cccc([C@@H](C)Nc2nc(C)nc3ccc([C@H]4CC[S@](=N)(=O)CC4)cc23)c1` [I-332], the IC50 under setting [1] was 18 nM.
With `Cc1nc(N[C@H](C)c2cccc(C(F)(F)F)c2)c2cc(-c3ccc(=O)n(CC(=O)N(C)C)c3)ccc2n1` [I-333], the IC50 under setting [1] was determined as 26 nM.
With `COc1cc2nc(C)nc(N[C@H](C)c3cccc(C)c3)c2cc1-c1ccc(=O)n(CC(=O)N(C)C)c1` [I-335], the IC50 under setting [1] is 27 nM.
On the same count and under the same terms, under `Cc1cccc([C@@H](C)Nc2nc(C)nc3ccc(-c4ccc(=O)n(CC(=O)N(C)C)c4)cc23)c1` [I-336] stands 26 nM; under `Cc1nc(N[C@H](C)c2cccc(C(F)(F)F)c2)c2cc(-c3ccn(CC(=O)N(C)C)c(=O)c3)ccc2n1` [I-337], 37 nM; under `COc1cc2nc(C)nc(N[C@H](C)c3cccc(C)c3)c2cc1-c1ccn(CC(=O)N(C)C)c(=O)c1` [I-338], 39 nM.
The same measure, in the same setting: under `Cc1cccc([C@@H](C)Nc2nc(C)nc3ccc(-c4ccn(CC(=O)N(C)C)c(=O)c4)cc23)c1` [I-340] stands 1 nM; under `Cc1nc(N[C@H](C)c2cccc(C(F)(F)F)c2)c2cc(-c3ccc(=O)n(CC(=O)O)c3)ccc2n1` [I-341], 35 nM; under `Cc1cccc([C@@H](C)Nc2nc(C)nc3ccc(-c4ccn(CC(=O)O)c(=O)c4)cc23)c1` [I-342], 48 nM.
With `Cc1nc(N[C@H](C)c2cccc(C(F)(F)F)c2)c2cc(-c3ccc(=O)n(CC(N)=O)c3)ccc2n1` [I-343], the IC50 under setting [1] worked out at 40 nM.
Same read-out and setting: under `CNC(=O)Cn1cc(-c2ccc3nc(C)nc(N[C@H](C)c4cccc(C(F)(F)F)c4)c3c2)ccc1=O` [I-344] stands 37 nM.
Turning to `CCn1cc(-c2cc3c(N[C@H](C)c4cc(N)cc(C(F)(F)F)c4)nc(C)nc3cc2C)ccc1=O` [I-347], the half-maximal inhibitory concentration (IC50) came to 6 nM.
Same read-out and setting: the result for `Cc1nc(N[C@H](C)c2cc(N)cc(C(F)(F)F)c2)c2cc(-c3ccn(C)c(=O)c3)c(C)cc2n1` [I-348] reads 7 nM.
On the same count and under the same terms, under `CCn1ccc(-c2cc3c(N[C@H](C)c4cc(N)cc(C(F)(F)F)c4)nc(C)nc3cc2C)cc1=O` [I-349] stands 5 nM; under `CCn1cc(-c2cc3c(N[C@H](C)c4cc(N)cc(C(F)(F)F)c4)nc(C)nc3cc2OC)ccc1=O` [I-350], 9 nM; under `COc1cc2nc(C)nc(N[C@H](C)c3cc(N)cc(C(F)(F)F)c3)c2cc1-c1ccc(=O)n(C(C)C)c1` [I-351], 13 nM.
On the same count and under the same terms, the result for `Cc1nc(N[C@H](C)c2cc(N)cc(C(F)(F)F)c2)c2cc([C@H]3CC[C@H](C(=O)N(C)C)CC3)c(C)cc2n1` [I-352] reads 2 nM.
`COc1cc2nc(C)nc(N[C@H](C)c3cc(N)cc(C(F)(F)F)c3)c2cc1[C@H]1CC[C@H](C(=O)N2CCN(C)CC2)CC1` [I-353]: the IC50 amounted to 2 nM.
With `COc1cc2nc(C)nc(N[C@H](C)c3cc(N)cc(C(F)(F)F)c3)c2cc1[C@H]1CC[C@@H](C(=O)N2CCN(C)CC2)CC1` [I-354], the IC50 turned out to be 22 nM.
